Reference: publication PMC8626583, “Collagen’s primary structure determines collagen:HSP47 complex stoichiometry” (The Journal of Biological Chemistry, 2021)
Several values for one entry are separate records, joined by “and”; a condition that tells them apart may be missing. Identical values can stand only once. Like-named read-outs stand apart in the source and are kept apart here.

Experiments:
HSP47 [1] = target: T1, HSP47 (Canis lupus familiaris, UniProt C7C419); conditions: CMP coated 500 ng/well, HSP47 1:4 dilution series from 8 or 10 μM, anti-His-HRP/TMB read-out, four-parameter logistic fit, triplicates
Description: Purified collagen model peptides were coated onto a Nunc MaxiSorp (Thermo Fisher Scientific), 500 ng/well. Plates were washed after 1 h at RT with TBS-T 0.05% and free binding sites were blocked with 1% (w/v) BSA in TBS. […] Assays were either stopped with 10% H2SO4 and absorption measured at 450 nm or continuously monitored at 370 nm every 20 min for 1 h. In latter cases, timepoints showing the highest signal-to-noise ratio were used for analysis. […] Results were analyzed using Gen5 (BioTek) and Origin 2018.
The values shown for ELISA-style binding assays represent the average of triplicates. Data from affinity assays were analyzed using a four-parameter logistic fit function ([44]) in Origin 2018.

HSP47 [2] = target: T1, HSP47; conditions: normalized to water at 20 °C
Description: All samples were incubated for 30 min at RT and afterward centrifuged at 42.000 rpm in a ProteomeLab XL-A analytical ultracentrifuge (Beckman Coulter) equipped with a fluorescence detection system (AU-FDS; Aviv Biomedical Inc). In this setup 42.000 rpm translates to 117.552g at the top (r = 59.5 mm) and 142.248g at the bottom (r = 72.0 mm) of the sample cell. Samples were spun in standard 12 mm double-sector epon-filled centerpieces, covered with quartz windows. All measurements were performed in triplicates and key findings repeated three times.
The resulting sedimentation velocity profiles were analyzed using DCDT+ version 2.4.3 software by John Philo ([40]). The buffer density (ρ) and buffer viscosity (η) of the buffer used for data analysis were calculated with [sequence]

HSP47 [3] = target: T1, HSP47; conditions: gold-labeled HSP47 200 nM, foldon-CMP 100 nM (2:1); 30 fields of 1 μm2 counted
Description: Briefly, mixed protein solutions were adsorbed to 400 mesh carbon-coated copper grids and stained with 0.75% (w/v) uranyl formate. Specimens were examined in a Philips/FEICM 100 TWIN transmission electron microscope operated at 60 kV accelerating voltage. Images were recorded with a side-mounted Olympus Veleta camera with a resolution of 2048 × 2048 pixels (2k × 2K) and the ITEM acquisitions software.

[4] = read-out: KD determined by curve fittings, Fig. 1D
[5] = higher molar ratios of HSP47 (up to 20 μM) to 1 μM ATTO488-labeled CMP
[6] = 1–5 μM HSP47 to 1 μM ATTO488-labeled CMP, 20 mM HEPES, 150 mM NaCl pH 7.5

T1 sequence (C7C419 entry or part of it): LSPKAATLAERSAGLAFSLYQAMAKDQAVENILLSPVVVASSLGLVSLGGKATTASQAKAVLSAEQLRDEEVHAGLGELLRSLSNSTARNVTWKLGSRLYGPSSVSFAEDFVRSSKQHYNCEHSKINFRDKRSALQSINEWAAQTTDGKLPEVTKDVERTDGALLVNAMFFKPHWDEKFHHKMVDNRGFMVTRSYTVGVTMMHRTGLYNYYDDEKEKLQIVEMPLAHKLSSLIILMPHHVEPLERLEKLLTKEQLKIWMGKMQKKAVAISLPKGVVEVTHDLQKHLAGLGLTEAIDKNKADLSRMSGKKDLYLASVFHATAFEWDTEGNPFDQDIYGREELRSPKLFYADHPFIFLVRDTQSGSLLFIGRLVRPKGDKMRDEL

Substance | Kd (HSP47 [1]; [4]) | sedimentation coefficient of the HSP47:CMP complex (HSP47 [2]; [5]) | Stoichiometry, 0 Au / foldon (no HSP47 bound) (HSP47 [3]) [%] | Stoichiometry, 1 Au / foldon (one HSP47 bound) (HSP47 [3]) [%] | sedimentation coefficient of the HSP47:CMP complex (HSP47 [2]; [6]) [S] | Kd (HSP47 [1]; Fig. 1C) [nM] | Stoichiometry, 2 Au / foldon (two HSP47 bound) (HSP47 [3]) [%]
GARGLP | 24.1 ± 5.4 nM | even higher sedimentation rates | 52 | 46 | – | – | –
GPRGFP | 12 ± 1.4 nM | stagnated | 54 | 45 | ~4 | – | –
GPRGPP | 21.7 nM and ~21 nM | ~5 S | – | 29 | ~4 | 36 ± 3 | 18
